According to patent US6692927B2, “Bax degradation involvement in tumor survival and progression” (University of South Florida, priority 2000, dated 2004):
Where a SMILES comes first, the peptide text is derived from it. [ ]: non-standard residue; d: D form. The star is where a group is joined. Nva = CCC[C@H](N)C(=O)O; Cbz = O=C(OCc1ccccc1)*

Tested on: normal WI-38 cells
Test: PARP cleavage, cytochrome c release, Bax and p21 in normal fibroblasts
Type: cell-based, human
Conditions: 50 microM LLnV
Excerpt: Proteasome inhibitors activate Bax- and cytochrome c-dependent apoptosis pathway preferentially in transformed human fibroblasts. Normal human fibroblasts are more resistant to proteasome inhibitor-induced apoptosis than transformed and cancer cells (An et al., in press). This is probably due to inability of the normal cells to accumulate Bax protein in response to proteasome inhibition, and consequently failure to release cytochrome c. To test this hypothesis, both SV40-transformed and normal WI-38 cells were treated with 50 microM LLnV for up to 24 hours, followed by measurement of PARP cleavage, cytochrome c release and Bax accumulation. […] In contrast, only after 24 hours treatment, low levels of p85/PARP fragment and cytosolic cytochrome c were detected in normal WI-38 cells (FIGS. 1, A, B, lanes 8-14). […] The levels of Bax/p21 were increased at as early as 4 hours and remained high afterwards. […] The level of another band of ˜47 kDa increased at 4 hours, further increased between 6 and 12 hours, and then decreased (FIG. 1C). The p70 and p47 bands can contain ubiquitinated forms of Bax since similar polypeptides were detected by antibodies to both Bax and ubiquitin (Li et al., 1999). […] Therefore, although unable to activate the Bax- and cytochrome c-dependent apoptotic pathway in response to a low concentration of a proteasome inhibitor, normal cells are capable of undergoing Bax- and cytochrome c-independent apoptosis in response to a proteasome inhibitor at higher concentrations.
SV40-transformed (VA-13) and normal WI-38 cells were treated with 50 microM LLnV or DMSO (letter D) for up to 24 hours, followed by measurement of PARP cleavage (A), cytochrome c release (B) and Bax accumulation (C; also see FIG. 2). Panel D, exponentially grown VA-13 cells were pretreated with 50 microM LLnV or DMSO for 1 hour, washed with methionine-free medium, and then incubated for 30 minutes in methionine-free medium plus 50 microM LLnV (or DMSO). This was followed by replacing fresh methionine-free medium containing 150 microCi/ml of [^35S]-methionine, 10% dialyzed FBS and 50 microM LLnV (or DMSO). Cells were further incubated for 6 hours, followed by preparation of [^35S]-labeled protein lysates and Bax immunoprecipitates (6A7, PharMingen). The labeled Bax bands are indicated. […] Bax-alpha subcloned into pcDNA3 was used for coupled in vitro transcription/translation in the presence of [^35S]methionine. For Bax cleavage assay, the whole cell extracts were prepared. The [^35S]-labeled Bax (0.7 microl) was incubated with 50 microg protein in assay buffer (containing 50 microM LLM and no Ca^2+) for 4 hours at 37° C. Following incubation, the samples were subjected to SDS gel electrophoresis and autoradiography.

`CCC[C@@H](C=O)NC(=O)[C@H](CC(C)C)NC(=O)[C@H](CC(C)C)NC(=O)OCc1ccccc1` [LLnV] (Cbz-Leu-Leu-[Nva]-aldehyde) was tested. Which “time at which low levels of p85/PARP fragment and cytosolic cytochrome c were detected” value did it give?
Its value is 24 h.
